Reference: PubChem BioAssay AID790 (SRMLSC, 2007)
Calls of active or inactive are those of the source. How the calls were made is not given here.

Assays:
[1] = growth inhibition of yeast vps1Δ mutant, dose response, S. cerevisiae, background strain comparison (AID 790); conditions: S. cerevisiae vps1Δ mutant growth inhibition; measured here: background strain growth inhibition
[2] = tested on: S. cerevisiae vps1Δ mutant growth inhibition; test: as above

Compound	IC50 [1] [µM]	IC50 [2]
O=C(COc1ccc(Cl)cc1)Nc1ccc(N2CCN(C(=O)c3ccco3)CC2)cc1	> 10	> 10 µM (inactive)
COCCNC(=O)C(c1ccc(F)cc1)N(CC1CCCO1)C(=O)CCC(=O)Nc1ccccn1 (stereo not given)	> 10	> 10 µM (inactive)
C/C(=N\N=C(/N)SC1CC(=O)N(c2ccc(Cl)c(Cl)c2)C1=O)c1cccs1 (stereo not given)	5.98	4.46 µM
COc1ccc(-c2nnc(CSc3nc4ccccc4c(=O)n3C)o2)cc1OC	> 10	> 10 µM (inactive)
CC1CCCN(CCOCCOc2ccc(Cl)cc2Br)C1 (stereo not given)	> 10	> 10 µM (inactive)
Cc1ccc(Cl)c(OCCCCN(C)Cc2ccccc2)c1	> 10	> 10 µM (inactive)
CCOCCCNC(=O)c1cc2sc(Cl)cc2n1CC	> 10	> 10 µM (inactive)
C=CCc1ccccc1OCC(O)CN1CCN(Cc2ccc3c(c2)OCO3)CC1 (stereo not given)	> 10	> 10 µM (inactive)
COC(=O)c1ccc(CSc2nnc(NC(C)C)s2)cc1	> 10	> 10 µM (inactive)
O=C(NC(C(=O)c1ccccc1)N1CCCCC1)c1ccccc1 (stereo not given)	> 10	> 10 µM (inactive)
O=C(NCCc1ccccc1)C1CCN(S(=O)(=O)N2CCCC2)CC1	> 10	> 10 µM (inactive)
CCC(OC(=O)C(NC(=O)c1ccccc1)c1ccccc1)C(=O)Nc1cc(C)on1 (stereo not given)	> 10	> 10 µM (inactive)
CCOC(=O)COc1ccccc1C1Nc2ccccc2C(=O)N1c1cccc(Cl)c1 (stereo not given)	> 10	> 10 µM (inactive)
Cc1cccc(-n2c(N)c(C(=O)NCCN3CCOCC3)c3nc4ccccc4nc32)c1	> 10	> 10 µM (inactive)
O=[N+]([O-])c1cc(C(F)(F)F)ccc1N/N=C/c1cc2ccccc2nc1Cl	> 10	> 10 µM (inactive)
CC1CC(C)CN(CC(C)(C)NS(=O)(=O)c2ccc(Cl)cc2)C1 (stereo not given)	> 10	> 10 µM (inactive)
Cc1cccc(-c2c3c(=O)n(C)c(=O)n(C)c3cn2C2CCCCC2)c1	> 10	> 10 µM (inactive)
NC(=O)c1c(NC(=O)CN2C(=O)CCC2=O)sc2c1CCCCC2	> 10	> 10 µM (inactive)
O=C(COc1ccc(Br)cc1F)NC1CCN(Cc2ccccc2)CC1	> 10	> 10 µM (inactive)
c1ccc(-c2ccc(-c3cnc4n3CCCCC4)cc2)cc1	> 10	> 10 µM (inactive)

Compound	IC50 [1] [µM]	IC50 [2]
COc1cccc(OCCCCN2CC(C)OC(C)C2)c1 (stereo not given)	> 10	> 10 µM (inactive)
CCC(C)(C)n1nnnc1C(c1cc2cc3c(cc2[nH]c1=O)OCO3)N1CCN(C)CC1 (stereo not given)	> 10	> 10 µM (inactive)
O=C(NCC(=O)N(c1cccnc1)C(C(=O)NCc1ccco1)c1ccccc1)c1ccco1 (stereo not given)	> 10	> 10 µM (inactive)
COc1ccc(CN(C(=O)Cc2cccs2)C(C(=O)NC2CCCC2)c2ccncc2)cc1 (stereo not given)	> 10	> 10 µM (inactive)
Cc1nnc(-c2cccc(Br)c2)c2cn(-c3ccccc3)nc12	> 10	> 10 µM (inactive)
Cc1ccc(/C=N/n2cnc3sc(-c4ccccc4)cc3c2=O)o1	> 10	> 10 µM (inactive)
CC(C)OC(=O)CSc1nnc(-c2ccc(Cl)cc2)n1N	> 10	> 10 µM (inactive)
Cc1ccc(C2(C(F)(F)F)N=C3Sc4cc(C)cc(C)c4N3C(=O)N2)cc1 (stereo not given)	1.08	1.37 µM (inactive)
CCOC(=O)c1c(CN2CCCCC2C)oc2ccc(OC)cc12 (stereo not given)	> 10	> 10 µM (inactive)
Cc1cc(C(C)(C)C)ccc1OCCN1CCCC1	> 10	> 10 µM (inactive)
O=C(CC(=O)c1cc(Cl)ccc1O)c1ccccc1	12.7	2.11 µM
O=C(NCC(c1cccnc1)N1CCN(c2ccccc2)CC1)C1CCCCC1 (stereo not given)	> 10	> 10 µM (inactive)
Cc1ccc(S(=O)(=O)NC(CC(C)C)C(=O)Oc2ccc3c4c(c(=O)oc3c2)CCC4)cc1 (stereo not given)	> 10	> 10 µM (inactive)
COc1ccc(C(=O)Nc2ccc(Cl)cc2C(=O)N2CCCC(C)C2)cc1 (stereo not given)	> 10	> 10 µM (inactive)
O=C(C1CCN(S(=O)(=O)c2cccs2)CC1)N1CCCCCC1	> 10	> 10 µM (inactive)
Cc1cc(C)nc(N/N=C/C(Cl)=C/c2ccccc2)n1	> 10	> 10 µM (inactive)
CSc1ncccc1C(=O)OCC(=O)N1CCOCC1	> 10	> 10 µM (inactive)
O=C(O)c1cc(-c2ccc(/C=N/Nc3ccc(Cl)cc3)o2)ccc1Cl	16.4	4.51 µM
Cc1ccc(SC(C)C(=O)Nc2ncn[nH]2)cc1 (stereo not given)	> 10	> 10 µM (inactive)
N#CC1=C(N)NC(SCc2ccc(F)cc2)=C(C#N)C12CCCCC2	16.3	2.12 µM
